Reference: publication PMC6150025, “Novel Mixed-Type Inhibitors of Protein Tyrosine Phosphatase 1B. Kinetic and Computational Studies” (Molecules : A Journal of Synthetic Chemistry and Natural …, 2017)
pIC50, pKi: −log10 of the molar value. Blank lines part the entries; values can stand above or below the molecule they belong to.

Biological target: T1, PTP1B (Homo sapiens, UniProt P18031)
T1 construct: encodes for PTP1B (residues 1–321); inferred from the pET28A vector, NdeI/BamHI cloning and Ni-agarose purification) (N); made in house; host or cells: E. coli BLR
T1 sequence (P18031 1-321): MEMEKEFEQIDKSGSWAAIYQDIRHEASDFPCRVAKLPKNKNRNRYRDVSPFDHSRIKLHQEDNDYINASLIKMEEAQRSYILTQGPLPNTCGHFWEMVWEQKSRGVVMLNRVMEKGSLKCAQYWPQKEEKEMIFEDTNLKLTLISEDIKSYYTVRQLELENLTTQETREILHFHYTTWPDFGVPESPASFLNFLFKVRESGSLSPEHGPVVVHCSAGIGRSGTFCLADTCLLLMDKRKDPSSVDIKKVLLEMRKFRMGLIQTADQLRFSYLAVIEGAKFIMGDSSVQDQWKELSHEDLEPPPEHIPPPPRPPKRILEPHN
Test: PTP1B enzymatic inhibition assay (pNPP substrate)
Format: biochemical
Details: for pKi: Lineweaver-Burk analysis, mixed type model; for Inhibition Type: Lineweaver-Burk plots; for pIC50: curves at different concentration of each compound; for Vmax / Km: from fit of the kinetic data for each inhibitor; for α: mixed type inhibition model; for Km: pNPP; for % Inhibition: Table S1, values marked a: tested at 100 µM due to solubility problems
Procedure: The PTP1B activity was measured based on the Goldstein method. The assay was performed with a final reaction volume of 500 µL in HEPES buffer (50 mM HEPES, 1mM DTT, 2 mM EDTA and 150 mM NaCl, pH 7.0), DMSO (10%) and p-nitrophenol phosphate (pNPP) as substrate (50 mM), the reaction was started with the PTP1B (1.5 µg/mL). After 30 min of incubation at 37 °C, the reaction was stopped by the addition of 500 µL of NaOH 5N reading the absorbance at 405 nm. The number of hydrolyzed moles of pNPP was determined using the molar extinction coefficient of the product pNP (18,500 M^−1 cm^−1).
Inhibition assays were performed under the above described conditions, adding to the reaction each one of the molecules at a final concentration of 200 µM. The concentration that inhibits 50% (IC50) of the PTP1B activity was determined through curves at different concentration of each compound, adjusting the data to the equation reported elsewhere. The inhibition type and constant were obtained by the measurement of the initial velocities of hydrolysis varying the substrate concentration in a range of 2–30 µM, in absence or presence of fixed concentrations of each inhibitor. For compound 1 the concentrations used were 3, 6, 10 and 20 µM; in the case of compound 2 were 2, 4, 6, 8, and 10 µM; and for compound 3 were 20, 50, 70 and 90 µM. The experimental data were analyzed through the Lineweaver-Burk plot using the software Sigma Plot V12.3 (Systat Software, Inc., San Jose, CA, USA).

[1] = 200 µM compound, pNPP 50 mM, 30 min, 37 °C

Structure (SMILES): Cc1nc2cc(C(=O)N/N=C/c3ccc([N+](=O)[O-])o3)ccc2[nH]1 [2-methyl-N'-[(E)-(5-nitrofuran-2-yl)methylidene]-1H-benzimidazole-5-carbohydrazide]
% Inhibition: 54%

Structure (SMILES): Cn1c(SCCn2ccnc2)nc2cc(Cl)ccc21 [5-chloro-2-{[2-(1H-imidazol-1-yl)ethyl]sulfanyl}-1-methyl-1H-benzimidazole]
% Inhibition (200 µM) (Table S1, 200 µM compound): 42%

Structure (SMILES): CSc1nc2cc(C(=O)O)ccc2n1C [1-methyl-2-(methylsulfanyl)-1H-benzimidazole-5-carboxylic acid]
% Inhibition (200 µM) (Table S1, 200 µM compound): 33%

Structure (SMILES): COC(=O)c1cc2nc(SCC(=O)Nc3ncc([N+](=O)[O-])s3)[nH]c2cc1Cl [methyl 6-chloro-2-({2-[(5-nitro-1,3-thiazol-2-yl)amino]-2-oxoethyl}sulfanyl)-1H-benzimidazole-5-carboxylate]
% Inhibition (200 µM) (Table S1, 200 µM compound): 63%

Structure (SMILES): CSc1nc2cc(C(=O)N/N=C/c3ccc([N+](=O)[O-])o3)ccc2[nH]1 [2-(methylsulfanyl)-N'-[(E)-(5-nitrofuran-2-yl)methylidene]-1H-benzimidazole-5-carbohydrazide]
% Inhibition: 50%

Structure (SMILES): O=C(CSc1nnnn1-c1ccc(O)cc1)c1ccc2c(c1)OCO2 [Compound 4, 1-(1,3-benzodioxol-5-yl)-2-{[1-(4-hydroxyphenyl)-1H-1,2,3,4-tetraazol-5-yl]sulfanyl}-1-ethanone]
inhibition at 200 µM [1]: 88%

Structure (SMILES): COC(=O)c1c(Cl)ccc2nc(Cc3ccc([N+](=O)[O-])cc3)sc12 [methyl 6-chloro-2-[(4-nitrophenyl)methyl]-1,3-benzothiazole-7-carboxylate]
% Inhibition (200 µM) (Table S1, 200 µM compound): 56%

Structure (SMILES): O=C(O)c1ccc2[nH]c3c(c2c1)CCCC3 [6,7,8,9-Tetrahydro-5h-carbazole-3-carboxylic acid]
% Inhibition (200 µM) (Table S1, 200 µM compound): 32%

Structure (SMILES): COC(=O)c1cc2nc(SCC(=O)Nc3ccc([N+](=O)[O-])cn3)[nH]c2cc1Cl [methyl 6-chloro-2-({2-[(5-nitropyridin-2-yl)amino]-2-oxoethyl}sulfanyl)-1H-benzimidazole-5-carboxylate]
% Inhibition (200 µM) (Table S1, 200 µM compound): 63%

Structure (SMILES): CN(C)S(=O)(=O)Oc1ccc(-c2noc(-c3ccc(OC(F)(F)F)cc3)n2)cc1 [N,N-dimethyl(4-{5-[4-(trifluoromethoxy)phenyl]-1,2,4-oxadiazol-3-yl}phenyl)sulfamate]
% Inhibition (200 µM) (Table S1, 200 µM compound): 38%

Structure (SMILES): O=C(NNS(=O)(=O)c1cc(C(F)(F)F)cc(C(F)(F)F)c1)c1cnn(-c2ccccc2)c1C(F)(F)F [N'1-{[1-phenyl-5-(trifluoromethyl)-1H-pyrazol-4-yl]carbonyl}-3,5-di(trifluoromethyl)benzene-1-sulfonohydrazide]
% Inhibition (200 µM) (Table S1, 200 µM compound): 45%

Structure (SMILES): CSc1nc2cc(C(=O)Nc3nc4cc(Oc5cccc(Cl)c5Cl)c(Cl)cc4[nH]3)ccc2n1C [N-[6-chloro-5-(2,3-dichlorophenoxy)-1H-benzimidazol-2-yl]-1-methyl-2-(methylsulfanyl)-1H-benzimidazole-5-carboxamide]
% Inhibition (200 µM) (Table S1, 200 µM compound): 42%

Structure (SMILES): CSc1nc2cc(C(=O)N/N=C/c3ccc([N+](=O)[O-])o3)ccc2n1C [1-methyl-2-(methylsulfanyl)-N'-[(E)-(5-nitrofuran-2-yl)methylidene]-1H-benzimidazole-5-carbohydrazide]
% Inhibition (200 µM) (Table S1, 200 µM compound): 34%

Structure (SMILES): O=C(O)C=CC(=O)Nc1ccc(N2CCCCCC2)c(NC(=O)C=CC(=O)O)c1 [4-{2-(1-azepanyl)-5-[(4-hydroxy-4-oxo-2-butenoyl)amino]anilino}-4-oxo-2-butenoic acid]
% Inhibition (200 µM) (Table S1, 200 µM compound): 58%

Structure (SMILES): O=C1COc2cc(O)ccc21 [6-hydroxy-2,3-dihydrobenzo[b]furan-3-one]
% Inhibition (200 µM) (Table S1, 200 µM compound): 37%

Structure (SMILES): O=S(=O)(c1ccc(NC(=S)Nc2ccc3c(c2)OCO3)cc1)N1CCCCC1 [N-(1,3-benzodioxol-5-yl)-N'-[4-(piperidinosulfonyl)phenyl]thiourea]
% Inhibition (200 µM) (Table S1, 200 µM compound): 32%

Structure (SMILES): O=C(O)c1ccccc1N1CCOCC1 [2-morpholinobenzoic acid]
inhibition at 200 µM (Table S1, 200 µM compound): 37%

Structure (SMILES): O=C(O)c1csc(-c2ccc(C(F)(F)F)cc2)n1 [2-[4-(trifluoromethyl)phenyl]-1,3-thiazole-4-carboxylic acid]
% Inhibition (200 µM) (Table S1, 200 µM compound): 34%

Structure (SMILES): OCc1ccccc1N1CCOCC1 [(2-morpholinophenyl)methanol]
inhibition at 200 µM (Table S1, 200 µM compound): 44%

Now from value to molecule:

inhibition at 200 µM [1]: 85%
Structure (SMILES): CN(C)S(=O)(=O)Oc1ccc(-c2noc(-c3ccc(Oc4cc(Cl)cc(Cl)c4)o3)n2)cc1 [Compound 5, 4-{5-[5-(3,5-dichlorophenoxy)-2-furyl]-1,2,4-oxadiazol-3-yl}phenyl-N,N-dimethylsulfamate]

inhibition at 200 µM [1]: 99%
pKi: 5.38
Inhibition Type: Mixed
pIC50: 5.08
Vmax: 16 µmol/min/mg
α: 2.9
Km: 6.8 mM
Structure (SMILES): O=C(CSc1nc2cc(Oc3cccc4ccccc34)c(Cl)cc2[nH]1)Nc1nccs1 [Compound 2, 2-[6-Chloro-5-(1-naphthalyloxy)-1H-benzimidazol-2-yl]thio-N-(thiazol-2-yl)acetamide]

% Inhibition (200 µM) (Table S1, 200 µM compound): 54%
Structure (SMILES): Cn1c(SCC(=O)Nc2nccs2)nc2cc(Oc3cccc4ccccc34)c(Cl)cc21 [2-({6-chloro-1-methyl-5-[(naphthalen-1-yl)oxy]-1H-benzimidazol-2-yl}sulfanyl)-N-(1,3-thiazol-2-yl)acetamide]

% Inhibition (200 µM) (Table S1, 200 µM compound): 64%
Structure (SMILES): N#Cc1ccc(-c2c(NC(=O)NS(=O)(=O)c3ccccc3Cl)oc(-c3ccco3)c2C#N)cc1 [2-[({[(2-chlorophenyl)sulphonyl]amino}carbonyl)amino]-4-cyano-3-(4-cyanophenyl)-5-(2-furyl)furan]

inhibition at 200 µM [1]: 92%
pKi: 4.38
Inhibition Type: Mixed
pIC50: 4.50
Vmax: 10 µmol/min/mg
α: 3.3
Km: 4.1 mM
Structure (SMILES): O=C(Nc1nc2cc(Oc3cccc(Cl)c3Cl)c(Cl)cc2[nH]1)C(F)(F)F [Compound 3, N-[6-Chloro-5-(2,3-dichlorophenoxy)-1H-benzimidazol-2-yl]-2,2,2-trifluoroacetamide]

inhibition at 200 µM [1]: 100%
pKi: 5.28
Inhibition Type: Mixed
pIC50: 5.12
Vmax: 8.8 µmol/min/mg
α: 1.4
Km: 6.7 mM
Structure (SMILES): CSc1nc2cc(Cl)c(C(=O)Nc3nc4cc(Oc5cccc(Cl)c5Cl)c(Cl)cc4[nH]3)cc2n1C [Compound 1, 5-Chloro-N-[6-chloro-5-(2,3-dichlorophenoxy)-1H-benzimidazol-2-yl]-1-methyl-2-(methylthio)-1H-benz-imidazole-6-carboxamide]

% Inhibition (200 µM) (Table S1, 200 µM compound): 38%
Structure (SMILES): COc1cc(C(CC(=O)O)CC(=O)N2CCC(n3cccc3)CC2)cc(OC)c1OC (stereo not drawn) [5-oxo-5-[4-(1H-pyrrol-1-yl)piperidino]-3-(3,4,5-trimethoxyphenyl)pentanoic acid]

% Inhibition (200 µM) (Table S1, 200 µM compound): 42%
Structure (SMILES): Cc1ccc(S(=O)(=O)CCSc2n[nH]c(=O)n2-c2ccc(OCc3ccccc3)cc2)cc1 [4-[4-(benzyloxy)phenyl]-5-({2-[(4-methylphenyl)sulfonyl]ethyl}sulfanyl)-2,4-dihydro-3H-1,2,4-triazol-3-one]

% Inhibition (200 µM) (Table S1, 200 µM compound): 64%
Structure (SMILES): O=C(CSc1nnc(-c2cc(OCC(F)(F)F)ccc2OCC(F)(F)F)o1)c1ccccc1 [2-({5-[2,5-di(2,2,2-trifluoroethoxy)phenyl]-1,3,4-oxadiazol-2-yl}thio)-1-phenylethan-1-one]

% Inhibition: 63%
Structure (SMILES): Cn1c(SCC(=O)Nc2nccs2)nc2cc(Cl)c(Oc3cccc4ccccc34)cc21 [2-({5-chloro-1-methyl-6-[(naphthalen-1-yl)oxy]-1H-benzimidazol-2-yl}sulfanyl)-N-(1,3-thiazol-2-yl)acetamide]

% Inhibition (200 µM) (Table S1, 200 µM compound): 63%
Structure (SMILES): COc1cc(C=NNC(=O)CSCc2c(C)c(C)c(C)c(C)c2C)cc(OC)c1OC [N'1-(3,4,5-trimethoxybenzylidene)-2-[(2,3,4,5,6-pentamethylbenzyl)thio]ethanohydrazide]

inhibition at 200 µM [1]: 74%
inhibition at 200 µM (Table S1, 200 µM compound): 64%
Structure (SMILES): CCCCCc1ccc(S(=O)(=O)Nc2ncccc2OCc2cc(F)cc(F)c2)cc1 [Compound 8, N-{3-[(3,5-difluorobenzyl)oxy]pyridin-2-yl}-4-pentylbenzenesulfonamide]

inhibition at 200 µM [1]: 80%
Structure (SMILES): COc1cc2nc(SCC(=O)Nc3ccc(F)c(Cl)c3)n(-c3ccccc3)c(=O)c2cc1OC [Compound 7, N-(3-chloro-4-fluorophenyl)-2-[(6,7-dimethoxy-4-oxo-3-phenyl-3,4-dihydro-2-quinazolinyl)sulfanyl]acetamide]
